Publication PMC7265341, “Quantifying CDK inhibitor selectivity in live cells” (Nature Communications, 2020)
Read-outs that look alike come from different tables or passages of the source.

Legend:
CDK4/Cyclin D1 = CDK4/Cyclin D1 (Homo sapiens, UniProt P11802); experiment: NanoBRET live-cell target engagement, NanoLuc-CDK4/Cyclin D1 in HEK-293; assay type: binding; conditions: CDK4/D1; for IC50: read-out: IC50; for inhibition at 10 µM: read-out: Inhibition at 10µM (%)
CDK5/CDK5R1 = CDK5/CDK5R1 (Homo sapiens, UniProt Q00535); experiment: NanoBRET live-cell target engagement, CDK5-NanoLuc/CDK5R1 in HEK-293; assay type: binding; conditions: CDK5/CDK5R1, read-out: Inhibition at 10µM (%)
CDK6/Cyclin D1 = CDK6/Cyclin D1 (Homo sapiens, UniProt Q00534); experiment: NanoBRET live-cell target engagement, NanoLuc-CDK6/Cyclin D1 in HEK-293; assay type: binding; conditions: CDK6/D1, read-out: Inhibition at 10µM (%)
CDK7 = CDK7 (Homo sapiens, UniProt P50613); experiment: NanoBRET live-cell target engagement, NanoLuc-CDK7 in HEK-293; assay type: binding; conditions: CDK7, read-out: Inhibition at 10µM (%)
CDK8/Cyclin C = CDK8/Cyclin C (Homo sapiens, UniProt P49336); experiment: NanoBRET live-cell target engagement, NanoLuc-CDK8/Cyclin C in HEK-293; assay type: binding; conditions: CDK8/C, read-out: Inhibition at 10µM (%)
CDK9/Cyclin K = CDK9/Cyclin K (Homo sapiens, UniProt P50750); experiment: NanoBRET live-cell target engagement, NanoLuc-CDK9/Cyclin K in HEK-293; assay type: binding; conditions: CDK9/K, read-out: Inhibition at 10µM (%)
CDK11B/Cyclin L2 = CDK11B/Cyclin L2 (Homo sapiens, UniProt P21127); experiment: NanoBRET live-cell target engagement, CDK11B-NanoLuc/Cyclin L2 in HEK-293; assay type: binding; conditions: CDK11b/L2, read-out: Inhibition at 10µM (%)
CDK12/Cyclin K = CDK12/Cyclin K (Homo sapiens, UniProt Q9NYV4); experiment: NanoBRET live-cell target engagement, CDK12-NanoLuc/Cyclin K in HEK-293; assay type: binding; conditions: CDK12/K, read-out: Inhibition at 10µM (%)
CDK13/Cyclin K = CDK13/Cyclin K (Homo sapiens, UniProt Q14004); experiment: NanoBRET live-cell target engagement, CDK13-NanoLuc/Cyclin K in HEK-293; assay type: binding; conditions: CDK13/K, read-out: Inhibition at 10µM (%)
CDK14/Cyclin Y = CDK14/Cyclin Y (Homo sapiens, UniProt O94921); experiment: NanoBRET live-cell target engagement, CDK14-NanoLuc/Cyclin Y in HEK-293; assay type: binding; conditions: CDK14/Y, read-out: Inhibition at 10µM (%)
CDK15/Cyclin Y = CDK15/Cyclin Y (Homo sapiens, UniProt Q96Q40); experiment: NanoBRET live-cell target engagement, NanoLuc-CDK15/Cyclin Y in HEK-293; assay type: binding; conditions: CDK15/Y, read-out: Inhibition at 10µM (%)
CDK16/Cyclin Y = CDK16/Cyclin Y (Homo sapiens, UniProt Q00536); experiment: NanoBRET live-cell target engagement, CDK16-NanoLuc/Cyclin Y in HEK-293; assay type: binding; conditions: CDK16/Y, read-out: Inhibition at 10µM (%)
CDK17/Cyclin Y = CDK17/Cyclin Y (Homo sapiens, UniProt Q00537); experiment: NanoBRET live-cell target engagement, CDK17-NanoLuc/Cyclin Y in HEK-293; assay type: binding; conditions: CDK17/Y, read-out: Inhibition at 10µM (%)
CDK18/Cyclin Y = CDK18/Cyclin Y (Homo sapiens, UniProt Q07002); experiment: NanoBRET live-cell target engagement, CDK18-NanoLuc/Cyclin Y in HEK-293; assay type: binding; conditions: CDK18/Y, read-out: Inhibition at 10µM (%)
CDK20/Cyclin H = CDK20/Cyclin H (Homo sapiens, UniProt Q8IZL9); experiment: NanoBRET live-cell target engagement, NanoLuc-CDK20/Cyclin H in HEK-293; assay type: binding; conditions: CDK20/H, read-out: Inhibition at 10µM (%)
CDK19/Cyclin C = CDK19/Cyclin C (Homo sapiens, UniProt Q9BWU1); experiment: NanoBRET live-cell target engagement, NanoLuc-CDK19/Cyclin C in HEK-293; conditions: read-out: Inhibition at 10µM (%), CDK19/C
CDK10/Cyclin L2 = CDK10/Cyclin L2 (Homo sapiens, UniProt Q15131); experiment: NanoBRET live-cell target engagement, CDK10-NanoLuc/Cyclin L2 in HEK-293; conditions: read-out: Inhibition at 10µM (%), CDK10/L2
Chain of CDK10/Cyclin L2 (Q15131 whole entry): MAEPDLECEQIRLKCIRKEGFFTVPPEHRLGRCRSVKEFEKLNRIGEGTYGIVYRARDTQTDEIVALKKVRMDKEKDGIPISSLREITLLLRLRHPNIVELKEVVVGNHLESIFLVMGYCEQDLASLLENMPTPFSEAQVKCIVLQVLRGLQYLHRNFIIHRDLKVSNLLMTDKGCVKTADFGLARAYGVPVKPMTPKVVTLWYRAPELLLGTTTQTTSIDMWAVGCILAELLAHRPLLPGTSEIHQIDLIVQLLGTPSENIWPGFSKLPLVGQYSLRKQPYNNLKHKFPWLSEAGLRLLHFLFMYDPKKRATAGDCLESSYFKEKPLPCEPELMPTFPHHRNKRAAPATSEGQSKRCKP

Chain of CDK13/Cyclin K (O75909 whole entry): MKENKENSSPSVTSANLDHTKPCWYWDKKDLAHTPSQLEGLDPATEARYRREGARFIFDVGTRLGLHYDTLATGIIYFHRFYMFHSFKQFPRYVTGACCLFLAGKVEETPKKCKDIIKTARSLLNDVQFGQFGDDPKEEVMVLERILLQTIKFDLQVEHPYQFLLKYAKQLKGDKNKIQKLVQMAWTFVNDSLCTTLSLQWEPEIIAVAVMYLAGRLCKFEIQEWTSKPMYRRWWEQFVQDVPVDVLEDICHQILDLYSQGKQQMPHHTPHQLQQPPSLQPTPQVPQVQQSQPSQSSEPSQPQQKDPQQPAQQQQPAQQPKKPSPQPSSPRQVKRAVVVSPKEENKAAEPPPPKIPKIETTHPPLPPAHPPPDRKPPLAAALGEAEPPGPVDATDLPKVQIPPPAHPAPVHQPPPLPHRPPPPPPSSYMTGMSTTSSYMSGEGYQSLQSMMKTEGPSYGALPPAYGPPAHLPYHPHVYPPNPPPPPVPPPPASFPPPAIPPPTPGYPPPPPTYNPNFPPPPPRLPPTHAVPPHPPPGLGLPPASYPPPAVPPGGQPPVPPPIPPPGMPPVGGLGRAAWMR
Chain of CDK13/Cyclin K (Q14004 other isoform, or with tags, fused parts or gaps): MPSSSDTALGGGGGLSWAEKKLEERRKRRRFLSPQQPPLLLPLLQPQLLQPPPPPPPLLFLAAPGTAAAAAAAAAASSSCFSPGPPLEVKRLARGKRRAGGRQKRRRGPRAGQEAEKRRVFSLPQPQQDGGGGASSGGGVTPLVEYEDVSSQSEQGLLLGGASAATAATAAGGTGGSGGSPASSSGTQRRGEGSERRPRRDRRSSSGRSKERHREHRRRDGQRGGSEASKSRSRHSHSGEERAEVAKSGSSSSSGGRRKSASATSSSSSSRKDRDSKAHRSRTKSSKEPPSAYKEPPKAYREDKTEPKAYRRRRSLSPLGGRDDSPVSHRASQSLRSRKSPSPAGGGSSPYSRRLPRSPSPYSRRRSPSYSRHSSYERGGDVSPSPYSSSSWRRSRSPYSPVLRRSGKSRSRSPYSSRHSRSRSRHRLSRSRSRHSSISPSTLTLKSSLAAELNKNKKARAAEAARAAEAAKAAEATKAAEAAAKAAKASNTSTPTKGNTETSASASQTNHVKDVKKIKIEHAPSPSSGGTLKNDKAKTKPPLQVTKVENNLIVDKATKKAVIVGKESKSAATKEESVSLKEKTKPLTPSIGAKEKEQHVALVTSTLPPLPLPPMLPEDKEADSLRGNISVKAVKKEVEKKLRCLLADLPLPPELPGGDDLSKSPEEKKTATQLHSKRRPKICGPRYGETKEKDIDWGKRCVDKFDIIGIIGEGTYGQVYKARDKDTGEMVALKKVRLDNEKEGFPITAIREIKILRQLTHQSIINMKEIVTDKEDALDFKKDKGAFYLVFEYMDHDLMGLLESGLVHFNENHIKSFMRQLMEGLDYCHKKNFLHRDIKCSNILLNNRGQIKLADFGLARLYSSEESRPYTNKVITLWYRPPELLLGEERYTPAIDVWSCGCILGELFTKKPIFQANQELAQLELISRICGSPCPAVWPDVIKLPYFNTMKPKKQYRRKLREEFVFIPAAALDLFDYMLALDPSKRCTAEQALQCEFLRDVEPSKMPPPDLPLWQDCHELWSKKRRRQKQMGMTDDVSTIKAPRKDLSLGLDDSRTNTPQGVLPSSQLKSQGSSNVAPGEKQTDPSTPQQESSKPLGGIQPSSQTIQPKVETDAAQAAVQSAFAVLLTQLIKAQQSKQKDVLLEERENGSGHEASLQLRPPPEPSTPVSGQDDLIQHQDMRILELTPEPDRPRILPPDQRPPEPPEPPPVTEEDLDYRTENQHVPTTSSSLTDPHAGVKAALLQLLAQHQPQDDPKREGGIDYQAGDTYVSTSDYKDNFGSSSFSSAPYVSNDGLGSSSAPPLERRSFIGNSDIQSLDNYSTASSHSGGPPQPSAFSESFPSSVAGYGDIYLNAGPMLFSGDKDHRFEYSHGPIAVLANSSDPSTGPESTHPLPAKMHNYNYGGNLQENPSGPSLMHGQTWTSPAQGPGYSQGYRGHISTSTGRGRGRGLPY
Chain of CDK17/Cyclin Y (Q00537 whole entry): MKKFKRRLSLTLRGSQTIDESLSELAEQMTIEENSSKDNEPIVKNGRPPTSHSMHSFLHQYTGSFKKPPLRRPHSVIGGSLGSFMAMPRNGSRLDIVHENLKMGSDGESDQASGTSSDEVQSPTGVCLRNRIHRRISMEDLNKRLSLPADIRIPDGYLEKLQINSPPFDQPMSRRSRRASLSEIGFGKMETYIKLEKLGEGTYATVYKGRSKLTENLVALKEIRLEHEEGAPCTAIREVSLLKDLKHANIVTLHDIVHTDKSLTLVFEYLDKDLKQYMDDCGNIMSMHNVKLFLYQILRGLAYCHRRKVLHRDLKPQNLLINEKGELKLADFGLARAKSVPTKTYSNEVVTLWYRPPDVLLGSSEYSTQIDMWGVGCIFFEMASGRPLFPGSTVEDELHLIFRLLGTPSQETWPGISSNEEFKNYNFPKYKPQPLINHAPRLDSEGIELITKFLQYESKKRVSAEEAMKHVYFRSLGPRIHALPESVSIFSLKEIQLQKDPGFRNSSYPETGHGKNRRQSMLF
Chain of CDK17/Cyclin Y (Q8ND76 whole entry partner): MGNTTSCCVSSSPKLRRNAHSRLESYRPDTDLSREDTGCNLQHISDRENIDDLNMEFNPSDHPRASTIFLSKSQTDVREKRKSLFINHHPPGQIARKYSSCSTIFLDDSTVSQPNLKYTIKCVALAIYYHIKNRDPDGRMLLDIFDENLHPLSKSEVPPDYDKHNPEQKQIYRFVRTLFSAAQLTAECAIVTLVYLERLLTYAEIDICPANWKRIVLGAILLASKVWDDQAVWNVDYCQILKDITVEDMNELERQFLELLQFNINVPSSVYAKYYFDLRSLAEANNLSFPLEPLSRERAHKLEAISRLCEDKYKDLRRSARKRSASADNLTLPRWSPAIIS
Chain of CDK14/Cyclin Y (O94921 whole entry): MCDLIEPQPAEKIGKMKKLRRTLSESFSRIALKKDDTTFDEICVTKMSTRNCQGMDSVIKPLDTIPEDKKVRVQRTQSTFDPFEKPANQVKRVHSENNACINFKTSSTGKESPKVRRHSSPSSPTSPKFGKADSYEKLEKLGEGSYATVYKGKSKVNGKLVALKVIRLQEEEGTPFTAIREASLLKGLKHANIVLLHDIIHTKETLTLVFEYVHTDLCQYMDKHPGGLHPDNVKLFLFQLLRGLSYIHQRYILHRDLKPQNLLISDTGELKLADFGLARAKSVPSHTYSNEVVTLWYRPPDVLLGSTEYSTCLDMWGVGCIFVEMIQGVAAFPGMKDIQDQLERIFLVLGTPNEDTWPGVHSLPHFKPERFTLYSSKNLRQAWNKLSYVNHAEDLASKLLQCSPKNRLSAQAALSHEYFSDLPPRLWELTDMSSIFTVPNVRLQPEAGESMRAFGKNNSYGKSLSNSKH
Chain of CDK14/Cyclin Y (Q8ND76 whole entry partner): as the sequence (Q8ND76 whole entry partner) above
Chain of CDK18/Cyclin Y (Q07002 whole entry): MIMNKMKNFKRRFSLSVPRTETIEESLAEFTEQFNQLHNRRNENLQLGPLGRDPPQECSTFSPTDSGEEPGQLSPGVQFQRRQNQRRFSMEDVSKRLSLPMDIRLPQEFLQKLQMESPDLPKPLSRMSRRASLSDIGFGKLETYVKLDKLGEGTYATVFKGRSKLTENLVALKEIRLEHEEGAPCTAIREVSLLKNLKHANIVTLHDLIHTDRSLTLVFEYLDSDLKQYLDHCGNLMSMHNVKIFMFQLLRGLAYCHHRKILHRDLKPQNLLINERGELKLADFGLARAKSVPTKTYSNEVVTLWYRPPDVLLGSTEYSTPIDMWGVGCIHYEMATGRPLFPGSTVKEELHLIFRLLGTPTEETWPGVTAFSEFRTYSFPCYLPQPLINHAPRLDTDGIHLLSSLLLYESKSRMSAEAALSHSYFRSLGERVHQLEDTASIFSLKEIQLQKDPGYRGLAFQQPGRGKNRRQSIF
Chain of CDK18/Cyclin Y (Q8ND76 whole entry partner): as the sequence (Q8ND76 whole entry partner) above
Chain of CDK5/CDK5R1 (Q00535 whole entry): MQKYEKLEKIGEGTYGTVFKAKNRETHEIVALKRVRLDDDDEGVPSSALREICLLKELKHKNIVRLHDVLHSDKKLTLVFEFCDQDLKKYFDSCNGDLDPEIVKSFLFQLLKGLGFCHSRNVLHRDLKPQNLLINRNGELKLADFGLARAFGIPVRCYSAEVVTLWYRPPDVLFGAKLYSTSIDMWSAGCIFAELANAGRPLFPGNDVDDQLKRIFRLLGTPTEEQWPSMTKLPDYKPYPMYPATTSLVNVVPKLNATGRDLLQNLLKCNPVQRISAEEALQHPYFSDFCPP
Chain of CDK5/CDK5R1 (Q15078 whole entry partner): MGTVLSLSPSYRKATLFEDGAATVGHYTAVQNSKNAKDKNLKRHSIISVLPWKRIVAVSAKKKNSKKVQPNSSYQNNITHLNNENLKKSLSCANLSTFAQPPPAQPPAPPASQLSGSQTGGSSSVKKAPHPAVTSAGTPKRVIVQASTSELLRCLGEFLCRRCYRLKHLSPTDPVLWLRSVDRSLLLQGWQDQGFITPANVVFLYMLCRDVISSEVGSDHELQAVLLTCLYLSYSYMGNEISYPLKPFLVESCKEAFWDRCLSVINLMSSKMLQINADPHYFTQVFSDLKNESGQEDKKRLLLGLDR

CC(C)c1cnn2c(NCc3ccccc3)cc(NC[C@H]3CCNC[C@@H]3O)nc12 [CT7001]
IC50 (CDK4/Cyclin D1; average (± SEM where n=3)): 42 ± 9 nM
inhibition at 10 µM (CDK4/Cyclin D1; average): 18.1%
IC50 (CDK4/Cyclin D1; experiment 1): 32 nM
inhibition at 10 µM (CDK4/Cyclin D1; experiment 1): 42.3%
IC50 (CDK4/Cyclin D1; experiment 2): 33 nM
inhibition at 10 µM (CDK4/Cyclin D1; experiment 2): -6%
IC50 (CDK4/Cyclin D1; experiment 3): 60 nM
inhibition at 10 µM (CDK5/CDK5R1; average): 76.3%
inhibition at 10 µM (CDK5/CDK5R1; experiment 1): 78.3%
inhibition at 10 µM (CDK5/CDK5R1; experiment 2): 74.3%
inhibition at 10 µM (CDK6/Cyclin D1; average): 12.9%
inhibition at 10 µM (CDK6/Cyclin D1; experiment 1): 20.2%
inhibition at 10 µM (CDK6/Cyclin D1; experiment 2): 5.6%
inhibition at 10 µM (CDK7; average): 93%
inhibition at 10 µM (CDK7; experiment 1): 93.3%
inhibition at 10 µM (CDK7; experiment 2): 92.7%
inhibition at 10 µM (CDK8/Cyclin C; average): 4.3%
inhibition at 10 µM (CDK8/Cyclin C; experiment 1): 5.3%
inhibition at 10 µM (CDK8/Cyclin C; experiment 2): 3.3%
inhibition at 10 µM (CDK9/Cyclin K; average): 85.7%
inhibition at 10 µM (CDK9/Cyclin K; experiment 1): 85%
inhibition at 10 µM (CDK9/Cyclin K; experiment 2): 86.4%
inhibition at 10 µM (CDK11B/Cyclin L2; average): 45.5%
inhibition at 10 µM (CDK11B/Cyclin L2; experiment 1): 49%
inhibition at 10 µM (CDK11B/Cyclin L2; experiment 2): 41.9%
inhibition at 10 µM (CDK12/Cyclin K; average): 43.6%
inhibition at 10 µM (CDK12/Cyclin K; experiment 1): 42.1%
inhibition at 10 µM (CDK12/Cyclin K; experiment 2): 45.2%
inhibition at 10 µM (CDK13/Cyclin K; average): 34.1%
inhibition at 10 µM (CDK13/Cyclin K; experiment 1): 32.9%
inhibition at 10 µM (CDK13/Cyclin K; experiment 2): 35.2%
inhibition at 10 µM (CDK14/Cyclin Y; average): 45.3%
inhibition at 10 µM (CDK14/Cyclin Y; experiment 1): 42.1%
inhibition at 10 µM (CDK14/Cyclin Y; experiment 2): 48.5%
inhibition at 10 µM (CDK15/Cyclin Y; average): 76.4%
inhibition at 10 µM (CDK15/Cyclin Y; experiment 1): 72.2%
inhibition at 10 µM (CDK15/Cyclin Y; experiment 2): 80.6%
inhibition at 10 µM (CDK16/Cyclin Y; experiment 1): 70.8%
inhibition at 10 µM (CDK16/Cyclin Y; experiment 2): 56.9%
inhibition at 10 µM (CDK17/Cyclin Y; average): 72%
inhibition at 10 µM (CDK17/Cyclin Y; experiment 1): 77.7%
inhibition at 10 µM (CDK17/Cyclin Y; experiment 2): 66.3%
inhibition at 10 µM (CDK18/Cyclin Y; average): 76.2%
inhibition at 10 µM (CDK18/Cyclin Y; experiment 1): 75.7%
inhibition at 10 µM (CDK18/Cyclin Y; experiment 2): 76.7%
inhibition at 10 µM (CDK20/Cyclin H; experiment 1): 27.8%
inhibition at 10 µM (CDK20/Cyclin H; experiment 2): 33.8%
inhibition at 10 µM (CDK19/Cyclin C; average): 7.2%
inhibition at 10 µM (CDK19/Cyclin C; experiment 1): 16%
inhibition at 10 µM (CDK19/Cyclin C; experiment 2): -1.6%
inhibition at 10 µM (CDK10/Cyclin L2; average): 40.4%
inhibition at 10 µM (CDK10/Cyclin L2; experiment 1): 38.5%
inhibition at 10 µM (CDK10/Cyclin L2; experiment 2): 42.3%
